Source: patent publication EP0359454B1, “CC-1065 analogs having two CPI subunits” (PHARMACIA & UPJOHN COMPANY, priority 1988, dated 1990)
In brackets after ≈: the same amount, converted by molar mass.

Legend:
L-1210 Leukemia = test: L-1210 leukemia in vivo, IV drug vs IP tumor, dosed on day 1; parameters: species or system Male BDF1 mice; conditions: IV drug vs IP tumor, dosed on day 1; for Best T/C: T/C = median survival treated/control x 100, each value at the dose (1-600 µg/kg); for cures: animals surviving 30 days are considered cured, at the dose (µg/kg)
Excerpt: (§1) Table 3 presents data comparing [S-(R*,R*)]-6,6′-[carbonylbis(imino-1H-indole-5,2-dicarbonyl)]bis[8-chloromethyl)-3,6,7,8-tetrahydro-1-methyl-benzo[1,2-b:4,3-b′]dipyrrol-4-ol (Compound 1) with (7bR)-N-[2-[(4,5,8,8a-tetrahydro-7-methyl-4-oxocyclopropa-[C]pyrrolo[3,2-e]indol-2(1H)0yl)carbonyl]-1H-indol-5-yl]-2-benzofurancarboxamide (U-73,975) in the other murine systems where the compounds have been run jointly.
The results set forth in Tables 1 and 4 were obtained using standard well known procedures (In Vivo Cancer, Models, NIH Publication No. 84-2635, 1984).
T/C refers to median life span of treated mice divided by median life span of control mice times 100.

L1210 leukemia cells = test: In vitro L1210 cell growth inhibition; type: cell-based, murine; conditions: Mus musculus, concentration of drug which inhibits cell growth 50%, read-out: ID50 (the source's name)
Excerpt: as §1

Cc1c[nH]c2c(O)cc3c(c12)[C@H](CCl)CN3C(=O)c1cc2cc(NC(=O)C(=O)Nc3ccc4[nH]c(C(=O)N5C[C@H](CCl)c6c5cc(O)c5[nH]cc(C)c65)cc4c3)ccc2[nH]1 [Compound 3, (R*,S*)-N,N′-bis[2-[[1-(chloromethyl)-1,6-dihydro-5-hydroxy-8-methylbenzo[1,2-b:4,3-b′]dipyrrol-3(2H)-yl]carbonyl]-1H-indol-5-yl]-ethanediamide]
Best T/C (L-1210 Leukemia): 106
IC50 (L1210 leukemia cells): 0.009 ng/mL (≈ 0.0107 nM)

CCCCCCCCCC(=O)Oc1cc2c(c3c(C)c[nH]c13)[C@H](CCl)CN2C(=O)c1cc2cc(NC(=O)Nc3ccc4[nH]c(C(=O)N5C[C@@H](CCl)c6c5cc(OC(=O)CCCCCCCCC)c5[nH]cc(C)c65)cc4c3)ccc2[nH]1 [Compound 15, [S-(R*,R*)]-carbonylbis[imino-1H-indole-5,2-diylcarbonyl[1-(chloromethyl)-1,6-dihydro-8-methylbenzo[1,2-b:4,3-b′]dipyrrole-3,5(2H)-diyl]]ester, decanoic acid]
Best T/C (L-1210 Leukemia): 243
cures (L-1210 Leukemia): 1
IC50 (L1210 leukemia cells): 0.001 ng/mL (≈ 0.00089 nM)

Cc1c[nH]c2c(O)cc3c(c12)[C@H](CCl)CN3C(=O)c1ccc2[nH]c(C(=O)N3C[C@@H](CCl)c4c3cc(O)c3[nH]cc(C)c43)cc2c1 [Compound 10, [S-(R*,R*)]-6,6′-(1H-indole-2,5-diyldicarbonyl)bis[8-(chloromethyl)-3,6,7,8-tetrahydro-1-methyl-benzo[1,2-b:4,3-b′]dipyrrol-4-ol]
Best T/C (L-1210 Leukemia): 213
cures (L-1210 Leukemia): 1

Cc1c[nH]c2c(O)cc3c(c12)[C@H](CCl)CN3C(=O)c1cc2cc(NC(=O)c3ccc(C(=O)Nc4ccc5[nH]c(C(=O)N6C[C@@H](CCl)c7c6cc(O)c6[nH]cc(C)c76)cc5c4)o3)ccc2[nH]1 [Compound 6, [S-(R*,R*]-N,N′-bis[2-[[1-(chloromethyl)-1,6-dihydro-5-hydroxy-8-methylbenzo[1,2-b:4,3-b′]dipyrrol-3(2H)-yl]carbonyl]-1H-indol-5-yl]-2,5-furandicarboxamide]
Best T/C (L-1210 Leukemia): 178
cures (L-1210 Leukemia): 1
IC50 (L1210 leukemia cells): 0.012 ng/mL (≈ 0.0132 nM)

Cc1c[nH]c2c(O)cc3c(c12)[C@H](CCl)CN3C(=O)c1cc2cc(NC(=O)c3ccc4[nH]c(C(=O)Nc5ccc6[nH]c(C(=O)N7C[C@@H](CCl)c8c7cc(O)c7[nH]cc(C)c87)cc6c5)cc4c3)ccc2[nH]1 [Compound 11, [S-(R*,R*)]-N,N′-bis[2-[[1-(chloromethyl)-1,6-dihydro-5-hydroxy-8-methylbenzo[1,2-b:4,3-b′]dipyrrol-3(2H)-yl]carbonyl]-1H-indol-5-yl]-1H-indole-2,5-dicarboxamide]
Best T/C (L-1210 Leukemia): 188

Cc1c[nH]c2c(O)cc3c(c12)[C@H](CCl)CN3C(=O)c1ccc(C(=O)N2C[C@@H](CCl)c3c2cc(O)c2[nH]cc(C)c32)[nH]1 [Compound 4, [S-(R*,R*)]-6,6′-(1H-pyrrole-2,5-diyldicarbonyl)bis[8-(chloromethyl)-3,6,7,8-tertrahydro-1-methyl-benzo[1,2-b:4,3-b′-]dipyrrol-4-ol]
Best T/C (L-1210 Leukemia): 156
IC50 (L1210 leukemia cells): 0.004 ng/mL (≈ 0.00675 nM)

Cc1c[nH]c2c1C13CC1CN(C(=O)c1cc4cc(NC(=O)Nc5ccc6[nH]c(C(=O)N7CC8CC89C7=CC(=O)c7[nH]cc(C)c79)cc6c5)ccc4[nH]1)C3=CC2=O (stereo not drawn) [Compound 2, [7bR-[2(7′bR*,8′aS*), 7bR*,8aS*]]-2,2′-[carbonylbis(imino-1H-indole-5,2-dicarbonyl)]bis[1,2,8,8a-tetrahydro-7-methyl-cyclopropa(c)pyrrolo[3,2-e]indol-4(5H)-one]
Best T/C (L-1210 Leukemia): 169
IC50 (L1210 leukemia cells): 0.001 ng/mL (≈ 0.00135 nM)

Cc1c[nH]c2c(O)cc3c(c12)[C@H](CCl)CN3C(=O)c1cc2cc(NC(=O)c3ccc4[nH]c(C(=O)N5C[C@@H](CCl)c6c5cc(O)c5[nH]cc(C)c65)cc4c3)ccc2[nH]1 [Compound 12, [S-(R*,R*)]-2-[[1-(chloromethyl)-1,6-dihydro-5-hydroxy-8-methylbenzo[1,2-b:4,3-b′]dipyrrol-3(2H)-yl]carbonyl]-N-[3-[[1-(chloromethyl)-1,6-dihydro-5-hydroxy-8-methylbenzo[1,2-b:4,3-b′]dipyrrol-3(2H)-yl]carbonyl]-1H-indol-6-yl]-1H-indole-5-carboxamide]
Best T/C (L-1210 Leukemia): 181

Cc1c[nH]c2c(O)cc3c(c12)[C@H](CCl)CN3C(=O)c1cc2cc(NC(=O)CC(=O)Nc3ccc4[nH]c(C(=O)N5C[C@@H](CCl)c6c5cc(O)c5[nH]cc(C)c65)cc4c3)ccc2[nH]1 [Compound 8, [R-(R*,S*)]-N,N′-bis[2[[1-(chloromethyl)-1,6-dihydro-5-hydroxy-8-methylbenzo[1,2-b:4,3-b′]dipyrrol-3(2H)-yl]carbonyl]-1H-indol-5-yl]-propanediamide]
Best T/C (L-1210 Leukemia): 194
IC50 (L1210 leukemia cells): 0.006 ng/mL (≈ 0.007 nM)

Cc1c[nH]c2c(OC(=O)C(C)(C)C)cc3c(c12)[C@H](CCl)CN3C(=O)c1cc2cc(NC(=O)Nc3ccc4[nH]c(C(=O)N5C[C@@H](CCl)c6c5cc(OC(=O)C(C)(C)C)c5[nH]cc(C)c65)cc4c3)ccc2[nH]1 [Compound 14, [S-(R*,R*)]-carbonylbis[imino-1H-indole-5,2-diylcarbonyl[1-(chloromethyl)-1,6-dihydro-8-methylbenzo[1,2-b:4,3-b′]dipyrrole-3,5(2H)-diyl]]ester, 2,2-dimethylpropanoic acid]
Best T/C (L-1210 Leukemia): 156

Cc1c[nH]c2c(O)cc3c(c12)[C@H](CCl)CN3C(=O)c1ccc(C(=O)N2C[C@@H](CCl)c3c2cc(O)c2[nH]cc(C)c32)o1 [Compound 5, [S-(R*,R*)]-6,6′-(2,5-furandiyldicarbonyl)bis[8-(chloromethyl)-3,6,7,8-tertrahydro-1-methyl-benzo[1,2-b:4,3′b′]dipyrrol-4-ol]
Best T/C (L-1210 Leukemia): 156
IC50 (L1210 leukemia cells): 0.01 ng/mL (≈ 0.0169 nM)

Cc1c[nH]c2c(O)cc3c(c12)[C@H](CCl)CN3C(=O)c1cc2cc(NC(=O)c3ccc(C(=O)Nc4ccc5[nH]c(C(=O)N6C[C@@H](CCl)c7c6cc(O)c6[nH]cc(C)c76)cc5c4)[nH]3)ccc2[nH]1 [Compound 7, [S-(R*,R*)]-N,N′-bis[2[[1-(chloromethyl)-1,6-dihydro-5-hydroxy-8-methylbenzo[1,2-b:4,3-b′]dipyrrol-3(2H)-yl]carbonyl]-1H-indol-5-yl]-1H-pyrrole-2,5-dicarboxamide]
Best T/C (L-1210 Leukemia): 156
IC50 (L1210 leukemia cells): 0.004 ng/mL (≈ 0.0044 nM)

CC(=O)Oc1cc2c(c3c(C)c[nH]c13)[C@H](CCl)CN2C(=O)c1cc2cc(NC(=O)Nc3ccc4[nH]c(C(=O)N5C[C@@H](CCl)c6c5cc(OC(C)=O)c5[nH]cc(C)c65)cc4c3)ccc2[nH]1 [Compound 9, [S-(R*,R*)]-6,6′-[carbonylbis(imino-1H-indole-5,2-diylcarbonyl)bis[8-(chloromethyl)-3,6,7,8-tetrahydro-1-methyl-benzo[1,2-b:4,3-b′]dipyrrol-4-ol diacetate]
Best T/C (L-1210 Leukemia): 165

Cc1c[nH]c2c(O)cc3c(c12)[C@H](CCl)CN3C(=O)c1ccc2[nH]c(C(=O)Nc3ccc4[nH]c(C(=O)N5C[C@@H](CCl)c6c5cc(O)c5[nH]cc(C)c65)cc4c3)cc2c1 [Compound 13, [S-(R*,R*)]-5-[[1-(chloromethyl)-1,6-dihydro-5-hydroxy-8-methylbenzo[1,2-b:4,3-b′]dipyrrol-3(2H)-yl]-carbonyl)-N-[2-[[1-(chloromethyl)-1,6-dihydro-5-hydroxy-8-methylbenzo[1,2-b:4,3-b′]dipyrrol-3(2H)-yl]carbonyl)-1H-indol-5-yl]-1H-indole-2-carboxamide]
Best T/C (L-1210 Leukemia): 188
